Data reported in ChEMBL document CHEMBL5385860, “Antiproliferative, antiangiogenic and apoptotic effect of new hybrids of quinazoline-4(3H)-ones and sulfachloropyridazine” (Eur J Med Chem, 2023).

Experiments:
[1] = test system: SR; test: Cytotoxicity against human SR cells assessed as growth inhibition at 10 uM relative to control; assay type: functional; details: read-out: GI
[2] = test system: UO-31; test: Cytotoxicity against human UO-31 cells assessed as growth inhibition at 10 uM relative to control; assay type: functional; details: read-out: GI
[3] = test system: A498; test: Cytotoxicity against human A498 cells assessed as growth inhibition at 10 uM relative to control; assay type: functional; details: read-out: GI
[4] = test system: CAKI-1; test: Cytotoxicity against human CAKI-1 cells assessed as growth inhibition at 10 uM relative to control; assay type: functional; details: read-out: GI
[5] = test system: SNB-75; test: Cytotoxicity against human SNB-75 cells assessed as growth inhibition at 10 uM relative to control; assay type: functional; details: read-out: GI
[6] = test system: NCI-H522; test: Cytotoxicity against human NCI-H522 cells assessed as growth inhibition at 10 uM relative to control; assay type: functional; details: read-out: GI
[7] = test system: Malme-3M; test: Cytotoxicity against human Malme-3M cells assessed as growth inhibition at 10 uM relative to control; assay type: functional; details: read-out: GI
[8] = test system: T47D; test: Cytotoxicity against human T47D cells assessed as growth inhibition at 10 uM relative to control; assay type: functional; details: read-out: GI
[9] = test system: HOP-92; test: Cytotoxicity against human HOP-92 cells assessed as growth inhibition at 10 uM relative to control; assay type: functional; details: read-out: GI
[10] = test system: HCT-116; test: Cytotoxicity against human HCT-116 cells assessed as growth inhibition at 10 uM relative to control; assay type: functional; details: read-out: GI
[11] = test system: K562; test: Cytotoxicity against human K562 cells assessed as growth inhibition at 10 uM relative to control; assay type: functional; details: read-out: GI
[12] = test system: LOX IMVI; test: Cytotoxicity against human LOX IMVI cells assessed as growth inhibition at 10 uM relative to control; assay type: functional; details: read-out: GI
[13] = test system: ACHN; test: Cytotoxicity against human ACHN cells assessed as growth inhibition at 10 uM relative to control; assay type: functional; details: read-out: GI
[14] = test system: NCI/ADR-RES; test: Cytotoxicity against human NCI/ADR-RES cells assessed as growth inhibition at 10 uM relative to control; assay type: functional; details: read-out: GI
[15] = test system: SF-539; test: Cytotoxicity against human SF-539 cells assessed as growth inhibition at 10 uM relative to control; assay type: functional; details: read-out: GI
[16] = test system: NCI-H23; test: Cytotoxicity against human NCI-H23 cells assessed as growth inhibition at 10 uM relative to control; assay type: functional; details: read-out: GI
[17] = test system: CCRF-CEM; test: Cytotoxicity against human CCRF-CEM cells assessed as growth inhibition at 10 uM relative to control; assay type: functional; details: read-out: GI
[18] = test system: UACC-257; test: Cytotoxicity against human UACC-257 cells assessed as growth inhibition at 10 uM relative to control; assay type: functional; details: read-out: GI
[19] = test system: 786-0; test: Cytotoxicity against human 786-0 cells assessed as growth inhibition at 10 uM relative to control; assay type: functional; details: read-out: GI
[20] = test system: M14; test: Cytotoxicity against human M14 cells assessed as growth inhibition at 10 uM relative to control; assay type: functional; details: read-out: GI
[21] = test system: M14; test: cells; details: Homo sapiens, M14, 24 h
[22] = test system: HCT-116; test: cells; details: Homo sapiens, HCT-116, 24 h
[23] = test system: MDA-MB-468; test: Cytotoxicity against human MDA-MB-468 cells assessed as growth inhibition at 10 uM relative to control; assay type: functional; details: read-out: GI
[24] = test system: Hs-578T; test: Cytotoxicity against human Hs-578T cells assessed as growth inhibition at 10 uM relative to control; assay type: functional; details: read-out: GI
[25] = test system: UACC-62; test: Cytotoxicity against human UACC-62 cells assessed as growth inhibition at 10 uM relative to control; assay type: functional; details: read-out: GI
[26] = test system: NCI-H322M; test: Cytotoxicity against human NCI-H322M cells assessed as growth inhibition at 10 uM relative to control; assay type: functional; details: read-out: GI
[27] = test system: NCI-H226; test: Cytotoxicity against human NCI-H226 cells assessed as growth inhibition at 10 uM relative to control; assay type: functional; details: read-out: GI
[28] = test system: HOP-62; test: Cytotoxicity against human HOP-62 cells assessed as growth inhibition at 10 uM relative to control; assay type: functional; details: read-out: GI
[29] = test system: MDA-MB-231; test: Cytotoxicity against human MDA-MB-231 cells assessed as growth inhibition at 10 uM relative to control; assay type: functional; details: read-out: GI
[30] = test system: SK-OV-3; test: Cytotoxicity against human SK-OV-3 cells assessed as growth inhibition at 10 uM relative to control; assay type: functional; details: read-out: GI
[31] = test system: IGROV-1; test: Cytotoxicity against human IGROV-1 cells assessed as growth inhibition at 10 uM relative to control; assay type: functional; details: read-out: GI
[32] = test system: EKVX; test: Cytotoxicity against human EKVX cells assessed as growth inhibition at 10 uM relative to control; assay type: functional; details: read-out: GI
[33] = test system: BT-549; test: Cytotoxicity against human BT-549 cells assessed as growth inhibition at 10 uM relative to control; assay type: functional; details: read-out: GI
[34] = test system: U-251; test: Cytotoxicity against human U-251 cells assessed as growth inhibition at 10 uM relative to control; assay type: functional; details: read-out: GI
[35] = test system: UO-31; test: cells; details: Homo sapiens, UO-31, 24 h

Compound | inhibition of growth at 10 µM [2] [%] | inhibition of growth at 10 µM [3] [%] | inhibition of growth at 10 µM [4] [%] | inhibition of growth at 10 µM [5] [%] | inhibition of growth at 10 µM [6] [%] | inhibition of growth at 10 µM [9] [%] | further results
CCn1c(SCC(=O)Nc2ccc(S(=O)(=O)Nc3ccc(Cl)nn3)cc2)nc2ccccc2c1=O | 12 | 10 | – | – | – | – | inhibition of growth at 10 µM [1]: 12%
O=c1c2cccc(Br)c2[nH]c(=S)n1-c1ccc(S(=O)(=O)Nc2ccc(Cl)nn2)cc1 | 20 | – | 13 | 11 | 12 | – | –
O=c1c2ccccc2[nH]c(=S)n1-c1ccc(S(=O)(=O)Nc2ccc(Cl)nn2)cc1 | 17 | – | 10 | – | 11 | – | –
O=C(CSc1nc2ccccc2c(=O)n1C1CCCCC1)Nc1ccc(S(=O)(=O)Nc2ccc(Cl)nn2)cc1 | 21 | – | 14 | 16 | – | 25 | inhibition of growth at 10 µM [7]: 10%; inhibition of growth at 10 µM [8]: 12%
CCCCNC(=O)CSc1nc2ccccc2c(=O)n1-c1ccc(S(=O)(=O)Nc2ccc(Cl)nn2)cc1 | 12 | 25 | – | – | – | – | –
COc1cc2[nH]c(=S)n(-c3ccc(S(=O)(=O)Nc4ccc(Cl)nn4)cc3)c(=O)c2cc1OC | 16 | – | 10 | 10 | – | – | inhibition of growth at 10 µM [10]: 11%
O=C(CSc1nc2ccccc2c(=O)n1-c1ccc(S(=O)(=O)Nc2ccc(Cl)nn2)cc1)Nc1ccc(S(=O)(=O)Nc2ccc(Cl)nn2)cc1 | 12 | – | – | – | – | – | inhibition of growth at 10 µM [1]: 13%; inhibition of growth at 10 µM [11]: 12%; inhibition of growth at 10 µM [12]: 10%
NS(=O)(=O)c1ccc(-n2c(SCC(=O)Nc3ccc(S(=O)(=O)Nc4ccc(Cl)nn4)cc3)nc3ccccc3c2=O)cc1 | 17 | – | – | – | – | 24 | inhibition of growth at 10 µM [13]: 10%; inhibition of growth at 10 µM [14]: 11%; inhibition of growth at 10 µM [15]: 11%; inhibition of growth at 10 µM [16]: 14%; inhibition of growth at 10 µM [17]: 10%; inhibition of growth at 10 µM [18]: 10%
O=c1c2cc(Cl)cc(Cl)c2[nH]c(=S)n1-c1ccc(S(=O)(=O)Nc2ccc(Cl)nn2)cc1 | 19 | 12 | 11 | – | 10 | – | inhibition of growth at 10 µM [19]: 21%; inhibition of growth at 10 µM [20]: 78%; inhibition of growth at 10 µM [10]: 48%; IC50 [21]: 40.9 µM; IC50 [22]: 20 µM
O=C(CSc1nc2ccccc2c(=O)n1-c1ccc(S(=O)(=O)Nc2ccc(Cl)nn2)cc1)NC1CCCCC1 | – | 11 | – | 16 | 11 | 11 | inhibition of growth at 10 µM [23]: 10%; inhibition of growth at 10 µM [24]: 10%; inhibition of growth at 10 µM [25]: 10%
CCCCn1c(SCC(=O)Nc2ccc(S(=O)(=O)Nc3ccc(Cl)nn3)cc2)nc2ccccc2c1=O | 29 | – | 18 | 23 | 13 | 32 | inhibition of growth at 10 µM [26]: 12%; inhibition of growth at 10 µM [27]: 10%; inhibition of growth at 10 µM [28]: 14%; inhibition of growth at 10 µM [29]: 10%; inhibition of growth at 10 µM [30]: 16%; inhibition of growth at 10 µM [31]: 15%; inhibition of growth at 10 µM [25]: 14%; inhibition of growth at 10 µM [32]: 11%; inhibition of growth at 10 µM [33]: 14%; inhibition of growth at 10 µM [34]: 10%; IC50 [35]: 14.7 µM
